# Test results: patent publication US20060079453A1, “Hla binding peptides and their uses” (priority 2002, published 2006)
# Where two headings read alike, the source gives them in different places. No end group written: not given here.
# Experiments:
# Assay in all cases: biochemical
# Assay type in all cases: binding
# [1] = target: HLA-DR DRB1*0301 (DR3) (Homo sapiens, UniProt P01903+P01911, A100K/A102G/A103R/A169T/F55Y/I96L/K41T/L162R/M171V/P40S/Q125H/Q178H/Q39Y/R42S/S66N/T106N/T262R/W38E/Y61H)
# Sequence of HLA-DR DRB1*0301 (DR3) (P01903 26-254 limits assumed, other chains not shown): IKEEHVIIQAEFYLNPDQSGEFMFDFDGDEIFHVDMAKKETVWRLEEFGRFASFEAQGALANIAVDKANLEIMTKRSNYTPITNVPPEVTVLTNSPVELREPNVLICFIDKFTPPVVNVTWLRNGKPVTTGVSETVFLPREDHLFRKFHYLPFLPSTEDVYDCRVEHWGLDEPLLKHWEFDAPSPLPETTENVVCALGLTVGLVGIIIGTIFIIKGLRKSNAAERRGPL
# [2] = target: HLA-DR DRB1*1302 (DR13) (Homo sapiens, UniProt P01903+P01911, A100E/A169T/K41T/L162R/M171V/P40S/Q125H/Q178H/Q39Y/Q99D/R42S/S66N/T262R/V115G/W38E/Y61H)
# Sequence of HLA-DR DRB1*1302 (DR13) (P01903 26-254 limits assumed, other chains not shown): as above
# [3] = target: HLA-DR DRB1*1501 (DR15) (Homo sapiens, UniProt P01903+P01911)
# [4] = target: HLA-DR DRB1*1101 (DR11) (Homo sapiens, UniProt P01903+P01911, A100R/A169T/A87E/I96F/K41T/L162R/M171V/P40S/Q125H/Q178H/Q39Y/Q99D/R42S/S66Y/T262R/V115G/W38E); settings: read-out: DRB1 *1101
# Sequence of HLA-DR DRB1*1101 (DR11) (P01903 26-254 limits assumed, other chains not shown): as above
# [5] = target: HLA-DR DRB4*0101 (DR53) (Homo sapiens, UniProt P01903+P13762, G164S)
# [6] = target: HLA-DR DRB5*0101 (DR51) (Homo sapiens, UniProt P01903+Q30154)
# [7] = target: HLA-DR DRB1*0101 (DR1) (Homo sapiens, UniProt P01903+P01911, A100R/D57E/F55L/F60I/F76Y/I96L/L162R/M171V/P40L/Q125E/R42F/V115G/Y59C)
# [8] = target: HLA-DR DRB1*0401 (DR4) (Homo sapiens, UniProt P01903+P01911, A100K/A169T/F76Y/I96L/K127E/L162R/M171V/N62H/P40V/Q125Y/R42H/S133A/S149N/S66Y/V115G/V209L/W38E)
# [9] = target: HLA-DR DRB1*0701 (DR7) (Homo sapiens, UniProt P01903+P01911, A100R/A102G/A103Q/D57E/D86V/E43K/F76Y/K127E/L162R/M171V/P40G/Q125H/Q99D/R33Q/R42Y/R54Q/S133A/S66F/T210M/V115G/Y107V/Y59L/Y89S); settings: DRB1 *0701
sequence,measurement,setting,value
LWWVNNESLPVSPRL,IC50,[1],315 nM
MIMIKFMGVIYIMII [MJMIKFMGVIYIMII],IC50,[2]; DRBI *1302,102 nM
same,IC50,[3]; DRBI *1501,23600 nM
MLDLQPEITDLYCYE,IC50,[4],> 15200 nM
same,IC50,[2]; read-out: DRBI *1302,> 12000 nM
same,IC50,[3]; read-out: DRBI *1501,> 48400 nM
same,IC50,[5]; read-out: DRB4 *0101,20 nM
same,IC50,[6]; read-out: DRB5 *0101,> 15300 nM
MTLYQIQVMKRNQKQ,IC50,[7]; DRB1 *0101,1220 nM
same,IC50,[8]; DRB1 *0401,117 nM
same,IC50,[9],31100 nM
same,IC50,[2]; DRBI *1302,323 nM
same,IC50,[3]; DRBI *1501,2430 nM
same,IC50,[5]; DRB4 *0101,82 nM
same,IC50,[6]; DRB5 *0101,22 nM
NPVVHFFKNIVTPR,IC50,[3]; DRBI *1501,3.7 nM
same,IC50,[6]; DRB5 *0101,1890 nM
NYELSKKAVIFTPIY [NYELSKXAVIFTPIY],IC50,[2]; DRBI *1302,410 nM
same,IC50,[3]; DRBI *1501,537 nM
same,IC50,[6]; DRB5 *0101,10600 nM
PATYGIIVPVLTSLF,IC50,[7]; DRB1 *0101,1.03 nM
same,IC50,[8]; DRB1 *0401,15 nM
same,IC50,[3]; DRBI *1501,2560 nM
same,IC50,[6]; DRB5 *0101,52 nM
QKKYIYNLIMNTQNK,IC50,[7]; DRB1 *0101,73 nM
same,IC50,[8]; DRB1 *0401,24 nM
same,IC50,[9],11900 nM
same,IC50,[2]; DRBI *1302,53 nM
same,IC50,[3]; DRBI *1501,844 nM
same,IC50,[5]; DRB4 *0101,87 nM
QKQVQMMIMIKFMGV,IC50,[3]; read-out: DRBI *1501,363 nM
same,IC50,[5]; read-out: DRB4 *0101,5.3 nM
same,IC50,[6]; read-out: DRB5 *0101,915 nM
REYILDLHPEPTDLF,IC50,[4],4150 nM
same,IC50,[3]; read-out: DRBI *1501,> 33100 nM
same,IC50,[6]; read-out: DRB5 *0101,> 31400 nM
RGGMVFELANSIVLP,IC50,[4],> 50000 nM
same,IC50,[2]; read-out: DRBI *1302,4.4 nM
same,IC50,[3]; read-out: DRBI *1501,94 nM
same,IC50,[5]; read-out: DRB4 *0101,411 nM
same,IC50,[6]; read-out: DRB5 *0101,413 nM
RIVYRDNNPYGVCIM,IC50,[3]; read-out: DRBI *1501,821 nM
same,IC50,[5]; read-out: DRB4 *0101,1400 nM
same,IC50,[6]; read-out: DRB5 *0101,20500 nM
SAFLESQSMNKIGDD,IC50,[7]; DRB1 *0101,549 nM
same,IC50,[9],523 nM
same,IC50,[3]; DRBI *1501,18700 nM
same,IC50,[5]; DRB4 *0101,302 nM
same,IC50,[6]; DRB5 *0101,243 nM
SAVPVYIYFNTWTTCQSIAF,IC50,[3]; read-out: DRBI *1501,92 nM
same,IC50,[6]; read-out: DRB5 *0101,20000 nM
SHDLMLLRISEPAEL,IC50,[2]; read-out: DRBI *1302,5.8 nM
same,IC50,[3]; read-out: DRBI *1501,1100 nM
same,IC50,[5]; read-out: DRB4 *0101,12 nM
same,IC50,[6]; read-out: DRB5 *0101,≥ 100000 nM
SHDLMLLRLSEPAK,IC50,[7]; read-out: DRB1 *0101,56 nM
same,IC50,[1]; read-out: DRB1 *0301,2400 nM
same,IC50,[8]; read-out: DRB1 *0401,2240 nM
SKIMKLPKLPISNGK,IC50,[2]; DRBI *1302,6460 nM
same,IC50,[3]; DRBI *1501,3570 nM
same,IC50,[5]; DRB4 *0101,6740 nM
same,IC50,[6]; DRB5 *0101,> 10300 nM
